The text below walks through data of ChEMBL document CHEMBL1201862, “PubChem BioAssay data set” (2004).

Some test systems named below: OVCAR-4; SF-295; COLO 205; CCRF-CEM; MDA-MB-435; CAKI-1; K562; NCI/ADR-RES; DU-145; UACC-257; SK-MEL-2; M14; HCT-15; NCI-H226; MOLT-4; HL-60; SNB-75; SNB-19; 786-0; TK-10.
What all share (experiment): NCI-60 cell line screen, 48 h

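Tested at 5 concentrations; 48 h exposure; 96-well plates; endpoints linearly interpolated, else capped at highest concentration. GI50 = concentration required for 50% inhibition of growth.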 Calls of active or inactive are those of the source. Cut-off read from the data, not from the text of the source: active = GI50 up to about 1.1 µM and inactive = higher.

On to `CCOC(=O)C1=CNC2=N[C@H]3CCCC[C@@H]3N2C1=O`, for which the GI50 with OVCAR-4, in the experiment on SF-295, with COLO 205, in the experiment with CCRF-CEM, in the experiment on MDA-MB-435 and in the experiment on CAKI-1 was > 100 µM (inactive) throughout. In addition, the GI50 in the experiment on K562, with NCI/ADR-RES, in the experiment with DU-145, with UACC-257, in the experiment on SK-MEL-2 and in the experiment on M14 was > 100 µM (inactive) in each case. Further, the GI50 in the experiment on HCT-15 was over 100 µM; in the experiment with NCI-H226, > 100 µM (inactive); with MOLT-4, > 100 µM (inactive); in the experiment on HL-60, > 100 µM (inactive); in the experiment with SNB-75 it was > 100 µM (inactive); in the experiment on SNB-19, > 100 µM (inactive). Further, the GI50 with 786-0 is > 100 µM (inactive).
For the compound `Cc1cc(C)c2c(O)c(S(=O)(=O)c3ccc(Cl)cc3)c(=O)oc2c1`, the GI50 was 41.7 µM (inactive) with OVCAR-4; 36.5 µM (inactive) in the experiment on SF-295; > 100 µM (inactive) in the experiment on COLO 205; 42.5 µM (inactive) in the experiment with CCRF-CEM; 51.8 µM (inactive) in the experiment with MDA-MB-435; 72.6 µM (inactive) in the experiment on CAKI-1. For the same compound, the GI50 in the experiment on K562 was 55.6 µM (inactive); in the experiment on NCI/ADR-RES it was 26.2 µM (inactive); with DU-145 it was 84.9 µM (inactive); with UACC-257 it was > 100 µM (inactive); in the experiment with SK-MEL-2, 32.7 µM (inactive); with M14 it was 34.3 µM (inactive). Moreover, the GI50 in the experiment on HCT-15 is 49.7 µM; with NCI-H226, 24.3 µM (inactive); with HL-60, 52.8 µM (inactive); in the experiment on SNB-75 it was 45 µM (inactive); in the experiment with SNB-19 it was 52.1 µM (inactive); in the experiment with 786-0 it was 78.2 µM (inactive).
Regarding `O=C(C/C(=N/O)C(=O)NC1=C(Cl)C(=O)c2ccccc2C1=O)CC(c1ccccc1)c1c(O)c2ccccc2oc1=O` (stereo not given), the GI50 in the experiment with OVCAR-4 was 10 µM (inactive); in the experiment with SF-295 it was 7.93 µM (inactive); in the experiment with COLO 205, 13.4 µM (inactive); in the experiment on CCRF-CEM it was 4.56 µM (inactive); in the experiment on MDA-MB-435, 2.22 µM (inactive); in the experiment on CAKI-1, 17.3 µM (inactive). Further, the GI50 in the experiment on K562 was 16.3 µM (inactive); with NCI/ADR-RES, 11.2 µM (inactive); with DU-145 it was 3.27 µM (inactive); in the experiment with UACC-257 it was 18.5 µM (inactive); in the experiment on SK-MEL-2 it was 10.6 µM (inactive); with M14 it was 4.59 µM (inactive). Moreover, the GI50 in the experiment with HCT-15 was 3.16 µM; with NCI-H226, 2.48 µM (inactive); with MOLT-4, 17.9 µM (inactive); in the experiment on HL-60, 2.39 µM (inactive); in the experiment on SNB-75, 3.87 µM (inactive); in the experiment on SNB-19, 19.1 µM (inactive). Also, the GI50 with 786-0 was 10.4 µM (inactive).
As to `CCN(CC)CCNc1nc(N)c(C#N)c(C#N)c1C#N`, the GI50 in the experiment with OVCAR-4, with SF-295, with COLO 205, with TK-10, with CCRF-CEM and in the experiment on MDA-MB-435 was > 10 µM (inactive) in each case. For the same compound, the GI50 with CAKI-1, with K562, in the experiment on NCI/ADR-RES, in the experiment on DU-145, in the experiment with UACC-257 and in the experiment on M14 was > 10 µM (inactive) in each case. In addition, the GI50 was over 10 µM with HCT-15; > 10 µM (inactive) in the experiment on NCI-H226; > 10 µM (inactive) with MOLT-4; > 10 µM (inactive) with HL-60; > 10 µM (inactive) in the experiment with SNB-75; > 10 µM (inactive) in the experiment on SNB-19. Also, the GI50 with 786-0 was > 10 µM (inactive).
Regarding `COc1ccc(C2Oc3c(cccc3OC)C=C2[N+](=O)[O-])cc1OC` (stereo not given), the GI50 is 18.7 µM (inactive) in the experiment with OVCAR-4; 20.6 µM (inactive) in the experiment on SF-295; 13.7 µM (inactive) in the experiment with COLO 205; 23.8 µM (inactive) with TK-10; 1.58 µM (inactive) in the experiment with CCRF-CEM; 2.16 µM (inactive) in the experiment on MDA-MB-435. Also, the GI50 in the experiment on CAKI-1 is 13.8 µM (inactive); with K562 it was 2.58 µM (inactive); in the experiment on NCI/ADR-RES, 3.87 µM (inactive); with DU-145 it was 11.7 µM (inactive); in the experiment with UACC-257, 3.71 µM (inactive); with M14, 3.82 µM (inactive). Further, the GI50 with HCT-15 was 3.46 µM; in the experiment with NCI-H226, 18.6 µM (inactive); in the experiment with MOLT-4 it was 2.85 µM (inactive); in the experiment with HL-60, 2.62 µM (inactive); with SNB-75, 7.21 µM (inactive); in the experiment on SNB-19 it was 17.3 µM (inactive). In the experiment with 786-0, the GI50 was 3.74 µM (inactive).
On to `O=C1C2=Cc3ccccc3CCN2c2ccc([N+](=O)[O-])cc21`, for which the GI50 in the experiment on OVCAR-4 was > 100 µM (inactive); in the experiment with SF-295 it was 36.6 µM (inactive); in the experiment on COLO 205, 43.2 µM (inactive); in the experiment with TK-10 it was 83 µM (inactive); with CCRF-CEM, 53.3 µM (inactive); in the experiment with MDA-MB-435, > 100 µM (inactive). Further, the GI50 in the experiment on CAKI-1 is 69.3 µM (inactive); in the experiment with K562, > 100 µM (inactive); in the experiment with NCI/ADR-RES it was 24 µM (inactive); in the experiment with DU-145, 96.2 µM (inactive); in the experiment on UACC-257, 36.4 µM (inactive); in the experiment with M14, > 100 µM (inactive). Besides, the GI50 in the experiment with HCT-15 was 58.3 µM; with NCI-H226, 64 µM (inactive); with MOLT-4, 45.7 µM (inactive); with HL-60, 66.5 µM (inactive); in the experiment with SNB-75, > 100 µM (inactive); with SNB-19 it was > 100 µM (inactive). For the same compound, in the experiment on 786-0, the GI50 is > 100 µM (inactive).
Regarding `CCCCNC1CCC2(SCCS2)c2[nH]c3ccccc3c21` (stereo not given), the GI50 in the experiment with OVCAR-4 was > 54.1 µM (inactive); in the experiment on SF-295, 34.5 µM (inactive); in the experiment on COLO 205 it was 17.5 µM (inactive); with TK-10, 13.2 µM (inactive); in the experiment on CCRF-CEM, 3.2 µM (inactive); in the experiment on MDA-MB-435 it was 5.21 µM (inactive). The GI50 in the experiment with CAKI-1 was 2.04 µM (inactive); in the experiment with K562, 10.1 µM (inactive); in the experiment on NCI/ADR-RES, 21.6 µM (inactive); in the experiment with DU-145 it was 19.1 µM (inactive); with UACC-257 it was 4.09 µM (inactive); with M14, 17.1 µM (inactive). Besides, the GI50 is 4.78 µM in the experiment with HCT-15; 42 µM (inactive) with NCI-H226; 3.97 µM (inactive) in the experiment with MOLT-4; 3.16 µM (inactive) in the experiment on HL-60; 43.1 µM (inactive) in the experiment on SNB-75; 29.6 µM (inactive) in the experiment with SNB-19. Moreover, in the experiment on 786-0, the GI50 is 4.53 µM (inactive).
In the case of `COC(=O)[C@H](COC(=O)/C=C/c1ccc(OC(C)=O)c(OC(C)=O)c1)NC(=O)/C=C/c1ccc(OC(C)=O)c(OC(C)=O)c1`, the GI50 with OVCAR-4 was 17.4 µM (inactive); with COLO 205, 18.5 µM (inactive); in the experiment with CCRF-CEM, 5.98 µM (inactive); in the experiment with MDA-MB-435, 19.4 µM (inactive); in the experiment on CAKI-1, 14 µM (inactive); with K562, > 100 µM (inactive). The GI50 is 33.7 µM (inactive) with NCI/ADR-RES; 14.1 µM (inactive) in the experiment on DU-145; 20.5 µM (inactive) in the experiment with UACC-257; 18.5 µM (inactive) in the experiment with SK-MEL-2; 21.2 µM (inactive) in the experiment on M14; 18.8 µM in the experiment with HCT-15. For the same compound, the GI50 in the experiment with NCI-H226 is 29.2 µM (inactive); in the experiment with MOLT-4, > 100 µM (inactive); with HL-60, > 100 µM (inactive); in the experiment on SNB-75 it was 14.6 µM (inactive); in the experiment with SNB-19 it was 15.8 µM (inactive); in the experiment with 786-0 it was 13.2 µM (inactive).
